Measurements from US4451477A, “Bendazac treatment of cataract” (Aziende Chimiche Riunite Angelini Francesco A.C.R.A.F. …, priority 1981, dated 1984).
“And” between values parts separate entries of the source, which are not always exact repeats. Identical values can stand only once. “Also recorded” adds a separate entry of the source. Counter-ions that a name gives are not always drawn. Like-named read-outs stand apart in the source and are kept apart here.

What was measured:
lens homogenate = test: heat-induced denaturation of lens homogenate (60° C., 20 min, nephelometric); format: biochemical, rat; conditions: for % inhibition of heat-induced denaturation of lens homogenate: 60° C., 20 min, pH 7.5
Procedure: (§1) Experiments in vitro: A study was performed on both lens homogenates and intact lens. The opacification of this material was obtained by heating. For this purpose the same method as that already employed to study blood proteins was used (Silvestrini et al., 1968; Silvestrini et al., 1970) with some minor modifications which are reported below.
(§2) For the study of the homogenate, fresh rat lens were used which has been removed from the capsule, immersed in phosphate buffer (pH 7.5; 0.1M) in the volumetric ratio of 15:85 and then homogenated. The homogenate was then centrifuged (10 minutes at 4000 r.p.m.), the supernatant was collected and further diluted 1:1 with the above phosphate buffer, alone or containing bendazac at different concentrations. The solution thus obtained was heated at 60° C. for 20 minutes and the denaturation was assessed nephelometrically. As reference a comparison is made with the values obtained with bovine serum albumin (BSA) denaturation.
(§3) The experiment was repeated using different salts of bendazac including lithium, sodium, potassium, ammonium, organic bases (such as ethylenediamine, piperazine and diisopropylamine) and lysine. […] This experiment proves that the active ingredient is bendazac. The intact lens was studied by using fresh bovine lens which were kept for 2 hours in the phosphate buffer described above, either alone or containing bendazac at different concentrations. The lenses were then heated at 50° C. for 120 minutes; this procedure produced a clear-cut opacification in the subcapsular region. The degree of opacification was assessed blindly (the experimentor was unaware of the treatment), using a score from 0 to 4.

cataract [1] = conditions: literature, cited from earlier work
[2] = cited from earlier work
blood proteins = conditions: literature; cited from earlier work
[3] = biological target: bovine serum albumin (BSA) (Bos taurus, UniProt P02769); test: heat-induced denaturation of bovine serum albumin (BSA); format: biochemical
bovine serum albumin (BSA), sequence (P02769 25-607): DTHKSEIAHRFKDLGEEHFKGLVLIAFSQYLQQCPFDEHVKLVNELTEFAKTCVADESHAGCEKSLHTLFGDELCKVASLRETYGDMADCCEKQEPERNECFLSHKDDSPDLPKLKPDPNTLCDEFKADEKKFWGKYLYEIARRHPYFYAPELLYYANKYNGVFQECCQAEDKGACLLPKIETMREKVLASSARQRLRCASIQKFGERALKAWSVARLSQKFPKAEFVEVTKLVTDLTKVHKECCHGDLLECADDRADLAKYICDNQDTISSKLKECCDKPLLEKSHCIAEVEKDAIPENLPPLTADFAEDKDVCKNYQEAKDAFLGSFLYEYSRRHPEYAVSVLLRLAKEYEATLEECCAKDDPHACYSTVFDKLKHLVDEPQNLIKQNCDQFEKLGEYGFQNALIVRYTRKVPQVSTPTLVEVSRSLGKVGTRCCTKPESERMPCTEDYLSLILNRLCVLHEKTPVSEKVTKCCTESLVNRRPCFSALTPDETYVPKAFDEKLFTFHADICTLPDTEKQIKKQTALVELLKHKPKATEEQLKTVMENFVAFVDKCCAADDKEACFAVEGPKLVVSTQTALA
Procedure: as §2, with “Experiments in vitro: A study was performed on both lens homogenates and intact lens. The opacification of this material was obtained by heating. For this purpose the same method as that already employed to study blood proteins was used (Silvestrini et al., 1968; Silvestrini et al., 1970) with some minor modifications which are reported below. For” for “For”

[4] = oral absorption in man, serum concentration after single oral administration; format: in vivo, human; conditions: for concentration at 2 h: human, serum
Description: These blood levels appeared too low to obtain therapeutic activity.

isolated bovine lenses = test: heat-induced opacification of isolated intact bovine lenses (50° C., 120 min, blind score); conditions: same molar concentrations for salts
Procedure: as §1, §3
The test was repeated using the various salts of bendazac mentioned above and in this case also with the same molar concentrations the results obtained were identical to those observed with bendazac alone.

cataract [5] = test: first experiment: anti-cataract activity in 24 patients, oral; format: in vivo, human; design: key to Vision / Refraction / Slit-lamp and/or transillumin. / Overall Judgement: +: improvement; 0: no change; -: worsening
Procedure: (§4) A first experiment was conducted on 24 patients with different types of cataract (cortical; corticonuclear, posterior subcapsular). […] The experiment included an examination of vision, refraction and slit-lamp test; the investigator was asked to express an overall judgement. These evaluations were performed before the beginning of treatment, after 4 weeks and again at the end of treatment when prolonged. The lysine salt of bendazac was administered at the dose of 1500 mg (corresponding to […] of bendazac) divided into three daily administrations during meals. The average duration of treatment was 50.4 days with time limits from 28 to 86 days. The study group consisted of 11 females and 13 males with an average age of 59.5 (47-74). The effects of treatment are summarized in Table 3; the values obtained in each patient are illustrated instead in Table 4. For practical purposes the results are expressed as: improvement (+), no change (0), worsening (-).

cataract [6] = test: eye drops instilled in 4 patients with cataract; format: in vivo, human; conditions: topical, eye drops 3 times daily for one month
Procedure: Finally, bendazac was administered in 4 patients in the form of eye drops containing 0.25% of the lysine salt of bendazac. Eye drops were instilled 3 times daily for one month.

cataract [7] = test: second experiment: double blind placebo-controlled anti-cataract study in patients, oral; format: in vivo, human; design: key to Vision / Refraction / Overall Judgement / Slit-lamp / Transillumination: +: improvement; 0: no change; -: worsening
Procedure: as §4
As a result of these encouraging results we decided to repeat the experiment under double blind conditions comparing the lysine salt of bendazac with placebo. A total of 35 patients were used; 19 were treated with placebo and 16 with the lysine salt of bendazac. The experimental methods used were identical to those described in the first experiment except for the duration of treatment which was always 4 weeks.

[8] = drug molar concentration 5 × 10^-4
[9] = 24 patients, 1500 mg daily oral, Table 3 summary
[10] = individual patient, one per line of Table 4, 1500 mg daily oral, 28-86 days, (dihydrate)
[11] = 16 patients, 4 weeks, double blind, placebo (19) 1
[12] = 16 patients, 4 weeks, double blind, placebo (19) 2
[13] = 16 patients, 4 weeks, double blind, placebo (19) --
[14] = individual patient, one per line of Table 6, 4 weeks, oral, listed as bendazac L, (dihydrate)

In the case of `O=C(O)COc1nn(Cc2ccccc2)c2ccccc12`, the “anti-denaturant effect on the lens homogenate compared with bendazac alone” value (lens homogenate; at the same molar concentrations) is reported as “the same anti-denaturant effect on the lens homogenate as that of bendazac alone”.
In the case of `O=C(O)c1cc(O)c2c3nc4ccccc4oc-3cc(=O)c2n1` [Catalin, 1-hydroxy-5-oxo-5H-pyrido[3,2-a]phenoxazino-3-carboxylic acid], the “effect on cataract development (words)” value (cataract [1]) is listed as “possible slowdown in cataract development”.
In the case of `CC(=O)Oc1ccccc1C(=O)O` [aspirin, acetylsalicylic acid], the “effect on cataract development (words)” value (cataract [1]) is listed as “possible slowdown in cataract development” and the “effect on cataract development (words)” value (cataract [1]; listed as acetylsalicylic acid) is listed as “delays the development of cataract but does not determine its regression”.
In the case of `O=C(O)COc1nn(Cc2ccccc2)c2ccccc12` [bendazac, [(1-benzyl-1H-indazol-3-yl)oxy]acetic acid], the “oral absorption in humans” value ([2]; Silvestrini et al.) is listed as “rather low; also recorded: too low”, the blood levels ([2]; following 8 days of treatment at increasing doses from 150 to 900 mg daily, humans) is listed as 8 µg and the “protective effect on heat-induced denaturation of lens homogenate” value (lens homogenate; compared with BSA) is listed as “prevents heat-induced denaturation of lens homogenate and that this protective effect is similar to that observed with BSA”. For the same compound, the “% inhibition of heat-induced denaturation of lens homogenate” value (“% inhibition” below) (lens homogenate; [8]) was 32%, the “% inhibition” value (lens homogenate; drug molar concentration 10^-3) was 68% and the “% inhibition” value (lens homogenate; drug molar concentration 10^-4) was 18%. For the same compound, the “anti-denaturant activity on proteins” value (blood proteins) was “very specific anti-denaturant activity on some blood proteins”, the inhibition at 500 µM [3, 8] was 47% and the inhibition at 1000 µM ([3]; drug molar concentration 10^-3) was 60%. For the same compound, the inhibition at 100 µM ([3]; drug molar concentration 10^-4) was 12%, the concentration at 2 h ([4]; 300 mg of bendazac alone, oral, under the same conditions, read-out: serum levels) was 8000 ng/mL and the “protective effect on lens opacification in vitro (words)” value (isolated bovine lenses) was “protective action in vitro with respect to lens opacification”. The “protective effect on lens opacification in vitro (words)” value (isolated bovine lenses; listed as Bendazac) was “clearcut protective effect on this experimentally induced cataract”.
In the case of `O=C(O)COc1nn(Cc2ccccc2)c2ccccc12` [lysine salt of bendazac, Salt of [(1-benzyl-1H-indazol-3-yl)oxy]acetic acid with L. lysine (dihydrate)], the “Overall Judgement: improvement (+), number of patients” value (cataract [5]; [9]) is reported as 18, the “Overall Judgement: no change (0), number of patients” value (cataract [5]; [9]) is reported as 5 and the “Overall Judgement: worsening (-), number of patients” value (cataract [5]; [9]) is reported as 1. For the same compound, the “Refraction: improvement (+), number of patients” value (cataract [5]; [9]) was 10, the “Refraction: no change (0), number of patients” value (cataract [5]; [9]) was 13 and the “Refraction: worsening (-), number of patients” value (cataract [5]; [9]) was 1. The “Slit-lamp and/or Transillum.: improvement (+), number of patients” value (cataract [5]; [9]) was 14, the “Slit-lamp and/or Transillum.: no change (0), number of patients” value (cataract [5]; [9]) was 10 and the “Vision: improvement (+), number of patients” value (cataract [5]; [9]) was 18. The “Vision: no change (0), number of patients” value (cataract [5]; [9]) was 6, the “number of patients with improvement” value (cataract [5]; depending on the evaluation method) was 10-18 patients and the “number of patients with relatively poor results” value (cataract [5]; first experiment, 24 patients) was 5 patients. For the same compound, the “number of patients with worsening effect” value (cataract [5]; first experiment, 24 patients) was 1 patient, the “Overall Judgement” value (cataract [5]; [10]) was “+ and - and 0” and the Refraction (cataract [5]; [10]) was “+ and 0 and -”. The Slit-lamp and/or transillumin. (cataract [5]; [10]) was “+ and 0”, the Vision (cataract [5]; [10]) was “+ and 0” and the concentration at 2 h ([4]; 2 hours after single oral administration of 500 mg lysine salt (= 303.8 mg bendazac), 6 volunteers, read-out: mean serum concentration) was 30000 ng/mL. For the same compound, the “oral absorption in man” value ([4]; lysine salt vs bendazac alone, (dihydrate)) was “good oral absorption; also recorded: better absorbed in man than bendazac alone”, the “effect on cataract” value (cataract [6]) was “induces a regression of the disease” and the “Overall Judgement: worsening (-), number of patients” value (cataract [7]; 16 patients, 4 weeks, double blind) was 2. For the same compound, the “Overall Judgement: improvement (+), number of patients” value (cataract [7]; [11]) was 11, the “Refraction: improvement (+), number of patients” value (cataract [7]; [11]) was 9 and the “Transillumination: no change (0), number of patients” value (cataract [7]; [11]) was 2. The “Vision: improvement (+), number of patients” value (cataract [7]; [11]) was 10, the “Overall Judgement: no change (0), number of patients” value (cataract [7]; [12]) was 3 and the “Slit-lamp: no change (0), number of patients” value (cataract [7]; [12]) was 2. For the same compound, the “Vision: no change (0), number of patients” value (cataract [7]; 16 patients, 4 weeks, double blind, placebo (19) 6) was 6, the “Slit-lamp: worsening (-), number of patients” value (cataract [7]; 16 patients, 4 weeks, double blind, placebo (19) 9) was 1 and the “Refraction: no change (0), number of patients” value (cataract [7]; 16 patients, 4 weeks, double blind, placebo (19) 12) was 7. The “Slit-lamp: improvement (+), number of patients” value (cataract [7]; [13]) was 10, the “Transillumination: improvement (+), number of patients” value (cataract [7]; [13]) was 4 and the “Overall Judgement” value (cataract [7]; [14]) was 0 and + and -. The Refraction (cataract [7]; [14]) was 0 and +, the Slit-lamp (cataract [7]; [14]) was “+ and 0 and -” and the Transillumination (cataract [7]; [14]) was “+ and 0”. For the same compound, the Vision (cataract [7]; [14]) was 0 and + and the “effect on cataract” value (cataract [7]; oral administration, patients, (dihydrate)) was “healing effect on cataract; also recorded: induces a regression of the disease”.
